# Experimental data published in US7803377B2, “Anti-DLL4 antibodies and methods using same” (Genentech, Inc., priority 2006, dated 2010).
# Assays:
# [1] = system: human colon carcinoma Colo205 cells; assay: Tumor model Colo205; assay type: in vivo, mouse
# Description: (§1) Tumor models. Beige nude female mice of 8- to 10-week-old were used. To obtain subcutaneous tumors, mice were injected with 0.1 ml cell suspension containing 50% matrigel (BD Bioscience) into the right posterior flank. 5×10^6 human colon cancer HM7 cells, 10×10^6 human colon carcinoma Colo205 cells, 10×10^6 human lung carcinoma Calu6 cells, 10×10^6 human lung carcinoma MV-522 cells, 10×10^6 mouse leukemia WEHI-3 cells, 10×10^6 mouse lymphoma EL4 cells, 10×10^6 human ovarian cancer SK-OV-3 X1 cells, 10×06 mouse lung cancer LL2 cells, 10×10^6 leukemia/lymphoma EL4 cells, or 10×10^6 non-small lung cancer H1299 cells were injected into each mouse. For human melanoma MDA-MB-435 model, mice were injected into the mammary fat pad with 0.1 ml cell (5×10^6) suspension containing 50% matrigel. […] For the following tumor models, each test mouse received a subcutaneous tumor fragment (1 mm^3) implanted in the right flank: non-small lung cancer SKMES-1, human breast cancer MX-1, human colorectal cancer SW620 and human adenocarcinoma LS174T. The tumor growth was quantitated by caliper measurements. Tumor volume (mm^3) was determined by measuring the length (l) and width (w) and calculating the volume (V=lw2/2). 10 to 15 animals were included in each group. Statistical comparison of treatment groups was performed using two-tailed Student's t-test. […]
# [2] = system: mouse leukemia WEHI-3 cells; assay: Tumor model WEHI3; assay type: in vivo; conditions: treatment initiated at ≧250 mm^3
# Description: as §1
# small intestines = assay: Histology and immunohistochemistry of mouse intestines; assay type: in vivo; conditions: anti-DLL4 antibody 10 mg/kg, twice weekly for 6 weeks
# Description: FIG. 10: DLL4/Notch was dispensable in the homeostasis of mouse intestine. Immunohistochemical studies of small intestines from control (a, d, g, j), anti-DLL4 antibody (10 mg/kg, twice weekly for 6 weeks) (b, e, h, k), and DBZ treated (30 μmol/kg daily for 5 days) (c, f, i, l) mice.
# Histology and immunohistochemistry of mouse intestines. Formalin-fixed and paraffin-embedded mouse small intestine tissues were sectioned at 3 μm thickness. Histochemical identification of intestinal cell types was performed with Alcian blue as recommended by the manufacturer (PolyScientific). For anti-Ki67 staining, sections were pretreated with Target Retrieval Solution (S1700, DAKO), and incubated with rabbit anti-Ki67 (1:200, clone SP6, Neomarkers). Secondary goat anti-rabbit at 7.5 µg/ml (Vector labs) was detected with the Vectastain ABC Elite Kit (Vector labs). All Ki67 stained sections were counterstained with Mayer's hematoxylin. For HES-1 staining, anti-rat HES-1 (clone NM1, MBL, International), followed by TSA-HRP, was used.
# A major concern about global inhibition of Notch is that it may be deleterious, given the pleiotropic roles of Notch signaling in regulating the homeostasis of postnatal self-renewal systems. For instance, Notch signaling is required to maintain undifferentiated crypt progenitor cells in intestines (van Es, J. H. et al. Nature 435, 959-63 (2005); Fre, S. et al. Nature 435, 964-8 (2005)). Indeed, γ-secretase inhibitors, which would indiscriminately block all Notch activities, cause unwanted side effects in rodents duo to a massive increase in goblet cells within the crypt compartment (Milano, J. et al. Toxicol Sci 82, 341-58 (2004); Wong, G. T. et al. J Biol Chem 279, 12876-82 (2004)). We examined the small intestines of mice treated with anti-DLL4 Mab by immunohistochemistry analyses.
# [3] = system: human melanoma MDA-MB-435; assay: Tumor model MDA-MB-435 (mammary fat pad); assay type: in vivo, mouse; conditions: treatment started 14 days post tumor cell injection
# Description: as §1
# [4] = biological target: T1, endogenously expressed DLL4 (Homo sapiens, UniProt Q9NR61); assay: FACS analysis of HUVECs transfected with control or DLL4-specific siRNA; conditions: antibody 2 μg/ml, binding reduced with DLL4 siRNA
# T1 construct: endogenous in cells; host or cells: HUVEC
# Description: RNA interference. SMARTpool small interfering RNA (siRNA) duplexes targeting human DLL4 and Si Control Non-Target siRNA #2 were purchased from Dharmacon. Transfection of siRNR duplexes (50 nM) was done with HUVECs at 40% confluency using OptiMEM-1® and Lipfectamine™ 2000 (Invitrogen). FACS analysis was done 48 hr after siRNA transfection. The sequences of the 4 anti-DLL4 SMART pool siRNA were as follows:
# FACS analysis of HUVECs transfected with control or DLL4-specific siRNA.
# [5] = Tolerability in tumor-bearing mice; assay type: in vivo, mouse; conditions: 10 mg/kg twice per week for up to 8 weeks
# Text: Thus, DLL4/Notch signaling is critical during active angiogenesis, but plays a less important role in normal vessel maintenance.
# human breast cancer MX-1 = assay: Tumor model MX-1; assay type: in vivo, mouse; conditions: 5 mg/kg, IP, twice weekly after establishment of the tumors
# Description: as §1
substance,measurement,setting,value
"YW26.82: affinity matured anti-DLL4 monoclonal antibody; HVR-H1/H2/H3 SEQ ID NO:1, 8, 9; HVR-L1/L2/L3 SEQ ID NO:10, 11, 18",tumor histology: EC density and viable tumor cell content,[1]; anti-DLL4 Mab treated Colo205 tumors,high EC density was associated with low viable tumor cell content
same,tumor volume,"[1]; treatment initiated at ≧250 mm^3, 10 mg/kg i.p. twice weekly, two weeks of treatment",remained static
same,"tumor growth, single agent",[2],significant inhibition of tumor growth
same,epithelial crypt cell differentiation or proliferation in small intestine,small intestines,entirely absent
same,expression of Notch target gene HES-1 in transit amplifying (TA) population,small intestines,did not alter the expression of the Notch target gene HES-1
same,epithelial crypt cell differentiation or proliferation in small intestine,small intestines; listed as anti-DLL4 Mab,no differences in epithelial crypt cell differentiation or proliferation profiles
same,tumor growth,[3],inhibited tumors growing in mouse mammary fat pads
same,binding to endogenously expressed DLL4 by FACS,[4],specifically bound to endogenously expressed DLL4
same,weight loss or animal death,[5],no apparent weight loss or animal death
same,"tumor growth, single agent",human breast cancer MX-1,inhibited tumor growth alone
